Laboratory results published in US8557875B2, “Gene transfer agent composition containing polyamidoamine dendron” (Public University Corporation Osaka Prefecture University, priority 2009, dated 2013).

Columns and labels:
COS-7 = assay: Cytotoxic evaluation on gene transfer (Example 5); assay type: cell-based; conditions: compared with Lipofectamine LTX and FuGENE HD
NHDF-ad cells = assay: Toxicity evaluation after multiple gene transfer, WST-8 kit (Example 7); assay type: cell-based, human; conditions: transfer on Day 1, 3, 5, WST-8 on Day 7
Experimental: (NHDF-ad cells: 3.5×10^3 cells/well·DMEM+10% FBS (Pe/St) 70 μl)
(i) A 20 mM Tris-HCl (pH 7.4) buffer was dispensed into tubes at 35.5 μl (for NP ratio=6).
(ii) 1.0 μg of plasmid DNA (pCAG-GFP) was added to each of the two tubes prepared in step (i) at 2 μl (1.0 μg), and the contents were stirred.
(iii) To the prepared plasmid DNA solution was added 37.5 μl of a DL-U2 liposome solution (N/P ratio=6), and the whole was thoroughly mixed using a vortex and incubated at room temperature for 30 minutes.
(iv) 25 μl of an Opti-MEM(R) I Reduced-Serum Medium was further added, and the whole was thoroughly mixed and allowed to stand at room temperature for 5 minutes.
7 μl and 14 μl per well of the DL-plasmid DNA complex solutions was individually added to three wells, and the contents were mixed by shaking the plate so as to be homogeneous.
(vi) The cells were incubated at 37° C. in 5% CO2 for 4 hours, and the growth medium was replaced.
For the cells subjected to gene transfer operations on Day 1, the same gene transfer was performed on Day 3 and Day 5, as well.
Day 7 Toxicity evaluation was performed according to the protocol of a WST-8 kit (Kishida Chemical Co., Ltd.).
(a well to which no lipoplex solution was added was defined as 100%) […]

HeLa cells = assay: Gene transfer evaluated by luciferase assay (Example 2); assay type: cell-based, human; conditions: lipoplex with 1 μg plasmid DNA, various N/P ratios; FIG. 7 and FIG. 8
Experimental: HeLa cells derived from human cervical cancer were seeded in a 24-well dish at 5.0×10^4 cells per well, and cultured overnight at 37° C. in 0.5 ml of a DMEM medium containing 10% FBS. Then, the cells were washed twice with PBS containing 0.36 mM CaCl2 and 0.42 mM MgCl2 (PBS (+)). Next, 0.5 ml of a DMEM medium containing 10% FBS was added, and the cells were supplemented with a lipoplex (100 μl) containing 1 μg of plasmid DNA per well and incubated at 37° C. for 4 hours. Afterward, the cells were washed three times with PBS (+) to remove the lipoplex not incorporated into the cells. Then, 1 ml of a DMEM medium containing 10% FBS was added, and the cells were cultured at 37° C. for 40 hours.
The cells treated with the lipoplex and cultured for 40 hours were washed twice with PBS (+), and further washed once with PBS (−). […] The luciferase activity and the amount of protein in the resulting cell lysate were determined by luciferase assay and a Coomassie (Bradford) Protein Assay Kit (PIERCE). […] The luminescent substrate solution (20 μl) was mixed with a luminescent substrate liquid (95 μl) including luciferin (13.5 μg) and a 5 mg/ml albumin solution (5 ml), and subjected to measurement for 20 seconds with a Lumat LB9507 luminometer (Berthold Japan Co., Ltd.) for an amount of luminescence.

CCCCCCCC/C=C\CCCCCCCCN(CCCCCCCC/C=C\CCCCCCCC)CCC(=O)NCCN(CCC(=O)NCCN)CCC(=O)NCCN (racemic) [DL-G1-U2]
cytotoxicity (COS-7): lower cytotoxicity
toxicity after multiple gene transfer (NHDF-ad cells): lowest toxicity
gene transfer efficiency (luciferase activity) compared with G1 (HeLa cells): two times higher
